Structures can show the parent of a compound that is named as a salt. One block for each compound: values may come before it.
Experiments:
[1] = Assembly size by dynamic light scattering (ALV back scattering); format: physicochemical
[2] = Electrostatics from dissociation curve of bilayer-incorporated hydroxycoumarin probes (HCPE, C17HC); format: physicochemical; conditions: for pKa C17HC: apparent pKa of hydroxycoumarin probe C17HC incorporated in the assemblies; for Surface potential C17HC / Surface potential HCPE: from shift of pKa of HC, Boltzmann equation; for Surface potential C17HC / Surface pH C17HC: probe C17HC; for pKa HCPE: apparent pKa of hydroxycoumarin probe HCPE incorporated in the assemblies; for Surface potential HCPE / Surface pH HCPE: probe HCPE
Description: The fluorescence excitation of the fluorophore 7-hydroxycoumarin (HC) moieties at 405 nm for HCPE and 380 nm for C17HC reflects the amount of the ionized species, while the excitation at 370 nm for HCPE and 330 nm for C17HC is the pH-independent isosbestic point, reflects the total amount of probe in the liposomes and micelles. Fluorescence emission was determined at 450 nm for all the above excitations. These two ratios (405/370 for HCPE, and 380/330 for C17HC) give the degree of ionization of HC fluoropore. The titration curve of HC, which is generated by plotting fluorescence excitation intensity ratio I405/I370 for HCPE and I380/I330 for C17HC at broad range of bulk pH, enables to calculate the apparent pKa of HC in HCPE and C17HC, respectively. The pKa of HC in the liposomal bilayer and/or in the micelles is calculated by fitting the above titration curve to the modified Henderson -Hasselbach equation, as described before [Zuidam & Barenholz (1997) ibid.]. The surface potential is then determined from the shift of pKa of HC that dramatically occurs in the strongly basic environment of cationic bilayer, according to the Boltzmann equation [Zuidam & Barenholz (1997) ibid.]

[3] = ζ-potential by Zetasizer in 10 mM NaCl; format: physicochemical; conditions: 25° C., 10 mM NaCl (pH 6.7)
Description: Liposomes' and micelles' ζ-potential was measured at 25° C. by the mobility of the particles in the applied electrical field using a Zetasizer 3000 HAS, Malvern Instruments, Malvern, UK, by diluting an aliquot of 40 μL in 20 mL of 10 mM NaCl (pH 6.7) and passing the solutions before measurement through a 0.2-μm syringe filter (Minisart, Sartorius, Germany). ζ-potential reflects the electrical potential at the plane of sheer (further away from the actual surface), which is sensed by the HCPE and C17HC.

[4] = DPH fluorescence increase upon aggregation
[5] = Follow up (storage) assays of CCS lipid assemblies in HEPES pH 7.4 at 4° C.; format: physicochemical
Description: FIGS. 3A-3D show the results of the different follow up assays (follow up for 23 days). The follow up assay were based on TNBS test, which is a quantitative assay based on color reaction of TNBS reagent with primary amines.
The level of primary amines was determined with storage time in TNBS binding and described as % of freshly hydrated preparation. The change in Zeta potential, the change in the HCPE fluorescence 450 nm/370 mnm excitation ratio, and the change in size of the lipid assemblies (liposomes or micelles) formed was determined.
At 21 day, there were 6 time points of storage, which were assayed simultaneously for the following parameters: […]

[6] = Level of hydration by Laurdan excitation general polarization; format: physicochemical; conditions: 20 mM HEPES pH 7.4, 25° C.
Description: Hydration level of the different CCS-based lipid assemblies before and after the addition of plasmid DNA was determined by monitoring changes of “Laurdan excitation general polarization” according to which the higher the value obtained, the lower is the level of hydration.
6-Dodecanoyl-2-dimethylaminonaphthalene (Laurdan), purchased from Lambda (Graz, Austria), was used to follow changes in hydration level of the liposome bilayer. The naphthalene fluorophore of this probe is located at the hydrophilichydrophobic interface of the bilayer, and its 12-carbon chain is aligned parallel to the bilayer lipid acyl chains. When associated with lipids, Laurdan excitation and emission spectra depend strongly on the phase of the lipid. […] The lipid phases and level of hydration can be described by a Laurdan steady-state fluorescence parameter referred to as generalized polarization (GP) [Hirsch-Lerner D, Barenholz Y. Biochim Biophys Acta. […] Laurdan GP fluorescence spectra in lipid vesicles are dependent on the number of water molecules around the fluorescent moiety of Laurdan. Excitation GP was calculated according to the expression: GP340=(I440−I490)/(I440+I490) (1) where I440 and I490 are the intensities of fluorescence emission at wavelengths 440 and 490 nm and the excitation wavelength 340 nm. […]

[7] = base
[8] = listed as CCS Acetate (micelles)
[9] = listed as CCS Chloride (micelles)

Assembly size, diameter (mass-weight) [1]: micelles 6 nm;
pKa C17HC [2, 8]: 4.75
Surface potential C17HC [2, 8]: 245.8 mV
Surface pH C17HC [2, 8]: 11.5
ζ-potential [3, 8]: 40
Critical Micelle Concentration (CMC) [4]: 5 µM
Structure (SMILES): CCCCCCCCCCCCC/C=C/[C@@H](O)[C@H](COC(=O)NCCCNCCCCNCCCN)NC(=O)CCCCCCCCCCCCCCC [CCS Acetate salt, N-palmitoyl D-erythro sphingosyl-1-carbamoyl spermine]

Assembly size, diameter (mass-weight) [1]: micelles 25 nm;
pKa C17HC [2, 9]: 5.61
pKa HCPE [2, 9]: 6.56
Surface potential C17HC [2, 9]: 195.4 mV
Surface potential HCPE [2, 9]: 242.3 mV
Surface pH C17HC [2, 9]: 10.64
Surface pH HCPE [2, 9]: 11.54
ζ-potential [3, 9]: 46.5
Critical Micelle Concentration (CMC) [4]: 5 µM
Structure (SMILES): CCCCCCCCCCCCC/C=C/[C@@H](O)[C@H](COC(=O)NCCCNCCCCNCCCN)NC(=O)CCCCCCCCCCCCCCC [CCS Chloride salt, N-palmitoyl D-erythro sphingosyl-1-carbamoyl spermine]

pKa HCPE [2]: 7.23
Surface potential HCPE [2]: 203.06 mV
Surface pH HCPE [2]: 10.87
ζ-potential [3]: 34
Structure (SMILES): CCCCCCCCCCCCC/C=C/[C@@H](O)[C@H](COC(=O)NCCCNCCCCNCCCN)NC(=O)CCCCCCCCCCCCCCC [CCS non-protonated, N-palmitoyl D-erythro sphingosyl-1-carbamoyl spermine]

Zeta potential during storage ([5]; HEPES buffer pH 7.4, 4° C., 23 days): no substantial change
Change in time in diameter of lipid assemblies during storage ([5]; HEPES pH 7.4, 4° C.): remained relatively small
Period of chemical stability of dispersions in aqueous phase ([5]; HEPES pH 7.4, 4° C.): at least 23 days
Surface pH and electrical surface potential over storage (HCPE 405/370 excitation ratio) ([5]; HEPES pH 7.4, 4° C., entire period of storage): unchanged
Level of primary amines upon storage (TNBS binding) ([5]; HEPES pH 7.4, 4° C., follow up for 23 days): no substantial change
Hydration state before addition of DNA (Laurdan GP) [6]: high hydration state
Hydration state upon addition of DNA (Laurdan GP) ([6]; formation of lipoplexes): become dehydrated
Solubility in ethanol [7]: exhibited
Structure (SMILES): CCCCCCCCCCCCC/C=C/[C@@H](O)[C@H](COC(=O)NCCCNCCCCNCCCN)NC(=O)CCCCCCCCCCCCCCC [CCS, N-palmitoyl D-erythro sphingosyl-1-carbamoyl spermine]

From US7771711B2, “Sphingolipids' polyalkylamines conjugates” (Yissum Research Development Company of The Hebrew …, priority 2003, dated 2010)
